One compound from patent publication US12070444B2, “Modulation of molecular markers using S-equol” (Board of Regents, The University of Texas System, priority 2020, dated 2024) can be followed below.

In one data set the target is T1, ERβ pY36 (Homo sapiens, UniProt Q92731).
T1 construct: host or cells: MDA-MB-231 (human TNBC cell line)
Nature of the data set: pY36-specific phosphorylation signal of ERβ in MDA-MB-231 cells. The class given is cell-based. The following applies: MDA-MB-231 cells (FIG. 16A). An excerpt:
FIG. 16. […] See, Yuan et al. (2016) listed below, which is incorporated by reference herein for all purposes.

For data set [1], the system named is TNBC. Nature of the data set: Pilot biomarker clinical study of S-equol in TNBC (Example 12). The class given is in vivo, human. The procedure:
A pilot biomarker clinical study was performed in 20 subjects with documented TNBC to determine the effect of the ERβ agonist S-equol on Ki67 an indicator of tumor cell proliferation. Tumor cell proliferation was measured by immunohistological staining for Ki-67. See, FIG. 18 for the outline of the protocol. Ki-67 is encoded by the gene MKI67 gene and is required to maintain individual mitotic chromosomes dispersed in the cytoplasm following nuclear envelope disassembly. Measuring the fraction of Ki-67-positive cells in a tumor is known to be a reliable parameter for assessing cancer patient prognosis. Subjects with TNBC are known to have very high levels of Ki67.
Patients enrolled in the study received a history, physical, laboratory assessment, radiological imaging, and diagnostic biopsies. Immunohistochemistry (IHC) of Ki67 (proliferation marker), total ERβ, and pY36-ERβ (phosphorylated ERβ, B7H1 (also known as PDL-1) and BRCA1 (breast cancer 1, early onset) were conducted using core needle biopsy tissue samples prior to treatment. Patients were given oral S-equol 50 mg, twice daily for approximately two weeks (10-21 days) prior to the scheduled oncologic surgeries or start of primary systemic therapy. Tumor samples were obtained from the surgery or the two-week repeat core needle biopsy. Post-treatment IHC evaluation of Ki67, total ERβ, phosphorylated ERβ (pY36) and BRCA1 were obtained. Ki67 reduction is a validated surrogate marker of both short and long term hormonal therapy efficacy in trials of human breast cancer and was compared pre- and post-treatment with S-equol. […] A c-DNA microarray platform was also used to discover downstream transcriptional targets of ERβ resulting from activation by S-equol.
Women eligible for the study had newly diagnosed, previously untreated, triple negative breast cancer, with an intact primary breast tumor of any size. All stages of the disease were eligible. They took S-equol during the time they underwent standard preoperative evaluation or pre-therapeutic work-up for advanced disease, such as staging procedures or central line placement. If primary surgery was performed, tissue leftover after standard diagnostic evaluation was used for the two-week biomarker assessment. […] See, FIG. 10.
A standard procedure for acquiring core biopsy with a Bard 14-gauge needle was utilized for determining TNBC prior to enrollment. Whenever possible, the tumor tissues used for IHC analyses were acquired at the same time as the diagnostic core biopsy. The tissue samples were sent for staining of total and pY36 ERβ and Ki67, and analyzed. Testing for ERα, PR, and HER-2 was performed using validated methods. TNBC tumors were defined as less than 5% nuclear staining of carcinoma cells for ERα and PR and either 0, 1, or 2+ staining for HER-2 by IHC. Whole-Genome DASL HT platform from Illumina, which is designed for gene expression profiling with extremely low input of RNA (50 pg), was used to interrogate paired FFPE tissue obtained before and after exposure to S-equol.
The primary analysis estimated the geometric mean change of the Ki67 expression from baseline to two weeks. This was performed using a one-sample t-test of the pre/post differences in the log-transformed data, and summarized by the 95% confidence interval. […]

In data set [2] the test system is TNBC. Nature of the data set: Neoadjuvant window trial of S-equol in TNBC patients (Example 15). The class given is in vivo, human. Also on record: Cyclin D1 staining, median decrease: unit not given here. The procedure: FIG. 35. Clinical trial with TNBC patients. A neoadjuvant window trial was performed on 39 enrolled patients with TNBC confirmed on diagnostic core needle biopsy. Cohort A (20 patients) received a daily dose of 50 mg BID and Cohort B (19 patients) received a higher dose of 150 mg BID for 10-21 days.
S-equol is a novel oral Estrogen Receptor (ER) Beta agonist with preclinical data showing suppression of TNBC cellular proliferation. A neoadjuvant window trial was performed on 39 enrolled patients with TNBC confirmed on diagnostic core needle biopsy. Cohort A (20 patients) received a daily dose of 50 mg BID and Cohort B (19 patients) received a higher dose of 150 mg BID for 10-21 days. (FIG. 35.) Paired biopsies were evaluable for 36 patients. Primary outcome was a change from pre- to post-treatment Ki-67 and secondary outcomes were included as correlative biomarkers. […] The average decrease in Ki-67 was 8% (P=0.00206, 95% CI−13.46 to −3.26).

[3] abbreviates: of 17 evaluable patients, S-equol 50 mg twice daily 10-21 days.

“Also recorded” adds a separate entry of the source.

T1 sequence (Q92731 whole entry): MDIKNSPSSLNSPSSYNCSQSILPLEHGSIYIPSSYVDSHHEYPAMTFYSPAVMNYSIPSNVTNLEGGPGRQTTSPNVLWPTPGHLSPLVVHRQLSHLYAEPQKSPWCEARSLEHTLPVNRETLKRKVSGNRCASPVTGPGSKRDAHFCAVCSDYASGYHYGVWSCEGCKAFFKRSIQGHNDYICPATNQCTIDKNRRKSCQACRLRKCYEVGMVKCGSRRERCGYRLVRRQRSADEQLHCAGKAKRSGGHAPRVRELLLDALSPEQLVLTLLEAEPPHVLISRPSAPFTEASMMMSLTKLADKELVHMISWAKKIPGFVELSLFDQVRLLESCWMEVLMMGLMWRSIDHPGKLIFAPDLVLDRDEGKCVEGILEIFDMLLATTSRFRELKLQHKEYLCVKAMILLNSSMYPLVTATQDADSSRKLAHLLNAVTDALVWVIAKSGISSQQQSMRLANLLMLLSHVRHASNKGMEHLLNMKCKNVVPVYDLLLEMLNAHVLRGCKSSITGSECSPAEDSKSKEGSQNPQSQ

Take `Oc1ccc([C@H]2COc3cc(O)ccc3C2)cc1` [S-equol]: the pY36-specific phosphorylation signal entry on ERβ pY36 is listed as “enhanced”. In the data set on TNBC [1] (TNBC patients, oral S-equol 50 mg twice daily for 10-21 days), the “change in Ki67 pre- vs post-treatment (in words)” value was “measurable decrease in Ki67; also recorded: measurable decline in Ki67”. In the data set with TNBC [1] (setting [3]), the “patients with 0-20% reduction in Ki-67” value stood at 7 patients, the “patients with greater than 20% reduction in Ki-67” value was “one”, the “patients with greater than 30% reduction in Ki-67” value stood at 4 patients and the “patients with no reduction in Ki-67” value came to 5 patients. In the data set on TNBC [2] (36 evaluable patients, S-equol 50 mg BID or 150 mg BID for 10-21 days, mean pre-treatment Ki-67 68%), the “mean posttreatment Ki-67” value was determined as 59%. In addition, the tolerability entry with TNBC [2] (oral, patients with TNBC) is listed as “well tolerated”. For the same compound, the “proliferation as measured by Ki-67 (in words)” value with TNBC [2] (patients with TNBC) is “inhibition of proliferation”. Moreover, the “change in CD3 or CD8 staining” value with TNBC [2] (pre- and post-treatment paired tumor samples) is on record as “no significant change; also recorded: did not significantly change”. In addition, the “average decrease in Ki-67” value in the data set on TNBC [2] (pre- to post-treatment, P=0.00206, 95% CI −13.46 to −3.26) came out at 8%. For the same compound, the “patients with a Ki-67 decrease of at least 20% from baseline” value in the data set on TNBC [2] (share of the patients) was found to be 28%. In addition, the “Cyclin D1 staining, median decrease” value in the data set with TNBC [2] (with S-equol exposure, range −27.5-0.0) was 12.5. Moreover, in the data set on TNBC [2] (with exposure to S-equol), the “ER-beta expression by IHC (in words)” value is recorded as “decreased” and the “cyclin D1 staining by IHC (in words)” value is “decreased”. Also, in the data set with TNBC [2] (with exposure to S-equol, range −65.00 to −19.50), the “ER Beta IHC expression, median decrease” value was found to be 45%.
